Experimental data reported in patent publication US20260356819A1, “OXOISOINDOLINYL-SUBSTITUTED […] DERIVATIVE AND USE THEREOF” (GLUETACS THERAPEUTICS (SHANGHAI) CO., LTD., priority 2023, published 2026).

How the values were obtained:
Type in all cases: cell-based
Settings in all cases: compounds at 50 nM and 500 nM
[1] = molecular target: T1, GSPT1 (Homo sapiens, UniProt P15170+Q96SW2); assay: Western blot degradation of GSPT1 in hPBMCs (24 h)
T1 construct: The supernatant was aspirated as the extracted total cell protein; endogenous in cells; host or cells: human peripheral blood mononuclear cells (hPBMCs)
T1 sequence (P15170 whole entry): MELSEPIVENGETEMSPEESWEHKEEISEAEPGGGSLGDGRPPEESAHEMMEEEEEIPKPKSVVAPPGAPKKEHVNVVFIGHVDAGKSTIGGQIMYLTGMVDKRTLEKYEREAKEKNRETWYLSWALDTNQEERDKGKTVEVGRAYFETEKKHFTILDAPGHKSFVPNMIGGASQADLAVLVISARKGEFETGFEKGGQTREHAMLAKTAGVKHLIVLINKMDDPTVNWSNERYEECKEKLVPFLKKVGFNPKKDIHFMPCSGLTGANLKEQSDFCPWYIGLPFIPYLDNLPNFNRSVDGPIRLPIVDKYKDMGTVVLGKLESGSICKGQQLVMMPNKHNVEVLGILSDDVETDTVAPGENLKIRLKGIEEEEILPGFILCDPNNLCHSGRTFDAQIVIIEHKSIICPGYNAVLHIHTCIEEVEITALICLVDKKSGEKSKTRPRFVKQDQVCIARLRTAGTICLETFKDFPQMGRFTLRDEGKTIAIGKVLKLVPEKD
T1 sequence (Q96SW2 whole entry): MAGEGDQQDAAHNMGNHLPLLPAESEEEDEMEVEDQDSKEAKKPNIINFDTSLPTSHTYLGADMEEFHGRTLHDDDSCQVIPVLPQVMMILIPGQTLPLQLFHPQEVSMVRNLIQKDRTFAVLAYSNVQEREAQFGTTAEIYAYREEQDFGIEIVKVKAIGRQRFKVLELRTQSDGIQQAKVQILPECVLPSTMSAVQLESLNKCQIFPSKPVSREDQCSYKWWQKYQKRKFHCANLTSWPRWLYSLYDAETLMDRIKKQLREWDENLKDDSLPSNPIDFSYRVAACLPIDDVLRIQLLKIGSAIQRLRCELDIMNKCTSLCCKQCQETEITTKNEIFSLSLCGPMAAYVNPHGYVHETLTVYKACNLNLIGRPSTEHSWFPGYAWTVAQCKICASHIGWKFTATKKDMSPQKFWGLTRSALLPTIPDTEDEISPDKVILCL
T1 sequence (Q16531 whole entry partner): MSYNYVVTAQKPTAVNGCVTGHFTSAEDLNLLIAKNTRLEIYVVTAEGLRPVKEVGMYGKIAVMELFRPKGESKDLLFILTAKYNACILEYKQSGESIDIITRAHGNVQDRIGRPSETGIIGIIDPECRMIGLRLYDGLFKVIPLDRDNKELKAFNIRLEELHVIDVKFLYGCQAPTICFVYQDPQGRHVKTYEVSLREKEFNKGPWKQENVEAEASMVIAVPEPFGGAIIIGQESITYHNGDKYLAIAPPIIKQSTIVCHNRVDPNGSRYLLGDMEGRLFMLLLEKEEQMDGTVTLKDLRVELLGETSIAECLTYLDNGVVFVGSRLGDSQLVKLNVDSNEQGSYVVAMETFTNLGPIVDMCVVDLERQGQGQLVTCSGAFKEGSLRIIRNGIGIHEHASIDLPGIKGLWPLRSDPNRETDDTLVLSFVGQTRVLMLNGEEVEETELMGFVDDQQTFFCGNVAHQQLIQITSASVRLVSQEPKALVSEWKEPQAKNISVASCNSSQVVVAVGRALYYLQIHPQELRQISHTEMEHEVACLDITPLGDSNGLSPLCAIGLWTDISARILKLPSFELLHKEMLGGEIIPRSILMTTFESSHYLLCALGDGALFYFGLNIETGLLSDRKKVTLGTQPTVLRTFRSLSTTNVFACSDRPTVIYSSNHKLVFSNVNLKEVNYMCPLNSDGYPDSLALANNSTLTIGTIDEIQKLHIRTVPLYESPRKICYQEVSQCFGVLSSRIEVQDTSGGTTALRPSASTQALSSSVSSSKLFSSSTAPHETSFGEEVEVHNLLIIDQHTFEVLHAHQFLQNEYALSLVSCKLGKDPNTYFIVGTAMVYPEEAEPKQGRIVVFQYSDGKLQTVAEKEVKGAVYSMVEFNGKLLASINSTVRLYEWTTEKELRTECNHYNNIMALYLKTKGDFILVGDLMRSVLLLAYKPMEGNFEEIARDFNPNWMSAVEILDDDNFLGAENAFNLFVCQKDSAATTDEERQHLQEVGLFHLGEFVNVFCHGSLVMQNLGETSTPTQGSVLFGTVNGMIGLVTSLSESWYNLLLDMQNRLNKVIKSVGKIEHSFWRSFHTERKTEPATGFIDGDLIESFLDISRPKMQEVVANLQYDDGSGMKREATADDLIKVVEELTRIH
Outline: (§1)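 Compounds were tested at 50 nM and 500 nM on hPBMCs (1×10^6 cells/mL) for 24 h, alongside DMSO. Proteins were detected by Western blot after denaturation at 95 °C; remaining protein computed from normalised band grayscale.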

[2] = molecular target: T2, IKZF3 (Homo sapiens, UniProt Q96SW2+Q9UKT9); assay: Western blot degradation of IKZF3 in hPBMCs (24 h)
T2 construct: The supernatant was aspirated as the extracted total cell protein; endogenous in cells; host or cells: human peripheral blood mononuclear cells (hPBMCs)
T2 sequence (Q9UKT9 whole entry): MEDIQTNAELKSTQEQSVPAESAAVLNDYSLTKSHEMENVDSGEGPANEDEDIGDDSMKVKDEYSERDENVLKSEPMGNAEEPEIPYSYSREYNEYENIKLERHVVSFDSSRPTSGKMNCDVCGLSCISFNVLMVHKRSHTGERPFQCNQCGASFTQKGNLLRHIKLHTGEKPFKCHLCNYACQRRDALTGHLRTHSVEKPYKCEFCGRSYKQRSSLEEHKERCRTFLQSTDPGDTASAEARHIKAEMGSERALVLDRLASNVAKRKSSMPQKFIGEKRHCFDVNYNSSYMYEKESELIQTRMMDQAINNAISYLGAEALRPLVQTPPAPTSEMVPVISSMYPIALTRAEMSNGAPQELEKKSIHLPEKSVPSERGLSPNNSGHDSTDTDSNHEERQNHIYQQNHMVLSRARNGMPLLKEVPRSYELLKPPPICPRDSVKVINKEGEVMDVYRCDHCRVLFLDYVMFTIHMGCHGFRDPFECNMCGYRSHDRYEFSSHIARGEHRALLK
T2 sequence (Q96SW2 whole entry): as the sequence (Q96SW2 whole entry) above
T2 sequence (Q16531 whole entry partner): as the sequence (Q16531 whole entry partner) above
Outline: as §1

[3] = molecular target: T3, IKZF2 (Homo sapiens, UniProt Q96SW2+Q9UKS7); assay: Western blot degradation of IKZF2 in hPBMCs (24 h)
T3 construct: The supernatant was aspirated as the extracted total cell protein; endogenous in cells; host or cells: human peripheral blood mononuclear cells (hPBMCs)
Outline: as §1

[4] = molecular target: T4, CK1α (Homo sapiens, UniProt P48729+Q96SW2); assay: Western blot degradation of CK1α in hPBMCs (24 h)
T4 construct: The supernatant was aspirated as the extracted total cell protein; endogenous in cells; host or cells: human peripheral blood mononuclear cells (hPBMCs)
T4 sequence (P48729 whole entry): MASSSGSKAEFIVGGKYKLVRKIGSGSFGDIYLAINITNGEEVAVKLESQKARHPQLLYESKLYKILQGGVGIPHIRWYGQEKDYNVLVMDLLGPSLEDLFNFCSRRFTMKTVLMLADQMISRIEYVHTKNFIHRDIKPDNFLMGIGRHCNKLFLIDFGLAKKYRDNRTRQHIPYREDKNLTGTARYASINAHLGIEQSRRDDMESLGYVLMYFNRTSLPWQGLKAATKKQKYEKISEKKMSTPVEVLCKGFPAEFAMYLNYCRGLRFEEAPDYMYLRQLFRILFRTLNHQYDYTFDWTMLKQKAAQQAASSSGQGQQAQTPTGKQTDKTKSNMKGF
T4 sequence (Q96SW2 whole entry): as the sequence (Q96SW2 whole entry) above
T4 sequence (Q16531 whole entry partner): as the sequence (Q16531 whole entry partner) above
Outline: as §1

[5] = molecular target: T5, WEE1 (Homo sapiens, UniProt P30291+Q96SW2); assay: Western blot degradation of WEE1 in hPBMCs (24 h)
T5 construct: The supernatant was aspirated as the extracted total cell protein; endogenous in cells; host or cells: human peripheral blood mononuclear cells (hPBMCs)
T5 sequence (P30291 whole entry): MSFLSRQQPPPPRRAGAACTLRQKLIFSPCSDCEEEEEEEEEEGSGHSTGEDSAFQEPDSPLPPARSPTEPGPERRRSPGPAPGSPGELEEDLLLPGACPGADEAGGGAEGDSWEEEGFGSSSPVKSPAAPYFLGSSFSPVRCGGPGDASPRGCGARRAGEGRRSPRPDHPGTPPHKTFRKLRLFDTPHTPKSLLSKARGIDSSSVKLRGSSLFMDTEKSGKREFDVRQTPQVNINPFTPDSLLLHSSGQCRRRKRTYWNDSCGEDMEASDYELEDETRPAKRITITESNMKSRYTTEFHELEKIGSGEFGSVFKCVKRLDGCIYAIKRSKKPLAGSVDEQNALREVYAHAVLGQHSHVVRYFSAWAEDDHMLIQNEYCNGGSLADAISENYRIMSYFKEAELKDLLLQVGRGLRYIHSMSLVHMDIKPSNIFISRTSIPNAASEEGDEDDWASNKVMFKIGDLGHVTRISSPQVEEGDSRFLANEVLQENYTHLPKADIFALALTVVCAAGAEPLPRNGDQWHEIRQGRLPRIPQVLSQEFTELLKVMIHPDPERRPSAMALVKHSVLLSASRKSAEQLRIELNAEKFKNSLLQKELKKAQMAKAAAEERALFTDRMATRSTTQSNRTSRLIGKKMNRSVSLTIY
T5 sequence (Q96SW2 whole entry): as the sequence (Q96SW2 whole entry) above
T5 sequence (Q16531 whole entry partner): as the sequence (Q16531 whole entry partner) above
Outline: as §1

[6] = molecular target: T6, IKZF1 (Homo sapiens, UniProt Q13422+Q96SW2); assay: Western blot degradation of IKZF1 in hPBMCs (24 h)
T6 construct: The supernatant was aspirated as the extracted total cell protein; endogenous in cells; host or cells: human peripheral blood mononuclear cells (hPBMCs)
T6 sequence (Q13422 whole entry): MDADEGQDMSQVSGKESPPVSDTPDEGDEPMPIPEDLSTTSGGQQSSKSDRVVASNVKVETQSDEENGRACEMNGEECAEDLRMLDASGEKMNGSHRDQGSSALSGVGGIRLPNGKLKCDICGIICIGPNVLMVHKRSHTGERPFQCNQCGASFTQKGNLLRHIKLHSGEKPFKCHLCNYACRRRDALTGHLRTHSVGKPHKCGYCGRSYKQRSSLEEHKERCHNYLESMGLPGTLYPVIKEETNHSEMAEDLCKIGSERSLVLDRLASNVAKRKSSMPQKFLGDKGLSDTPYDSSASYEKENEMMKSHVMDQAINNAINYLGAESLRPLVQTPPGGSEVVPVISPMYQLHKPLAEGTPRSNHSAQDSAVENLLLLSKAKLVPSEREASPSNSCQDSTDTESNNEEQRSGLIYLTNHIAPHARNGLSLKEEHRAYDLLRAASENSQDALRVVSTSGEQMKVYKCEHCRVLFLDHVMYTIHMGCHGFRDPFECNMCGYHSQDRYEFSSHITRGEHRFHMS
T6 sequence (Q96SW2 whole entry): as the sequence (Q96SW2 whole entry) above
T6 sequence (Q16531 whole entry partner): as the sequence (Q16531 whole entry partner) above
Outline: as §1

Row | Structure (SMILES) | GSPT1 substrate protein remaining % [1] | IKZF3 substrate protein remaining % [2] | IKZF2 substrate protein remaining % [3] | CK1α substrate protein remaining % [4] | WEE1 substrate protein remaining % [5] | IKZF1 substrate protein remaining % [6]
1 | O=C1CCN(N2C(=O)c3ccc(CN4C5CCC4CN(C(c4ccccc4)c4ccccc4)C5)cc3C2=O)C(=O)N1 [GT-06455, 5-((3-benzhydryl-3,8-diazabicyclo[3.2.1]octan-8-yl)methyl)-2-(2,4-dioxotetrahydropyrimidin-1(2H)-yl)isoindoline-1,3-dione] | B (80%< substrate protein remaining % ≤100%) | B (80%< substrate protein remaining % ≤100%) | B (80%< substrate protein remaining % ≤100%) | B (80%< substrate protein remaining % ≤100%) | A (0% ≤ substrate protein remaining % ≤80%) | B (80%< substrate protein remaining % ≤100%)
2 | O=C1CCN(N2C(=O)c3ccc(CN4CCC(c5ccnc6cc(F)ccc56)CC4)cc3C2=O)C(=O)N1 [GT-07689, 2-(2,4-dioxotetrahydropyrimidin-1(2H)-yl)-5-((4-(7-fluoroquinolin-4-yl)piperidin-1-yl)methyl)isoindoline-1,3-dione] | A (0% ≤ substrate protein remaining % ≤80%) | B (80%< substrate protein remaining % ≤100%) | B (80%< substrate protein remaining % ≤100%) | A (0% ≤ substrate protein remaining % ≤80%) | B (80%< substrate protein remaining % ≤100%) | B (80%< substrate protein remaining % ≤100%)
3 | O=C1CCN(N2Cc3cc(CN4CCN(c5ncnc6sccc56)CC4)ccc3C2=O)C(=O)N1 [GT-08057, 1-(1-oxo-5-((4-(thieno[2,3-d]pyrimidin-4-yl)piperazin-1-yl)methyl)isoindolin-2-yl)dihydropyrimidine-2,4(1H,3H)-dione] | A (0% ≤ substrate protein remaining % ≤80%) | B (80%< substrate protein remaining % ≤100%) | B (80%< substrate protein remaining % ≤100%) | B (80%< substrate protein remaining % ≤100%) | B (80%< substrate protein remaining % ≤100%) | A (0% ≤ substrate protein remaining % ≤80%)
4 | O=C1CCN(N2C(=O)c3ccc(CN4CCC(c5ccccc5)CC4)cc3C2=O)C(=O)N1 [GT-06803, 2-(2,4-dioxotetrahydropyrimidin-1(2H)-yl)-5-((4-phenylpiperidin-1-yl)methyl)isoindoline-1,3-dione] | B (80%< substrate protein remaining % ≤100%) | B (80%< substrate protein remaining % ≤100%) | B (80%< substrate protein remaining % ≤100%) | A (0% ≤ substrate protein remaining % ≤80%) | B (80%< substrate protein remaining % ≤100%) | B (80%< substrate protein remaining % ≤100%)
5 | O=C1CCN(N2C(=O)c3ccc(CN4CCN(c5ncccn5)CC4)cc3C2=O)C(=O)N1 [GT-07285, 2-(2,4-dioxotetrahydropyrimidin-1(2H)-yl)-5-((4-(pyrimidin-2-yl)piperazin-1-yl)methyl)isoindoline-1,3-dione] | B (80%< substrate protein remaining % ≤100%) | B (80%< substrate protein remaining % ≤100%) | B (80%< substrate protein remaining % ≤100%) | B (80%< substrate protein remaining % ≤100%) | A (0% ≤ substrate protein remaining % ≤80%) | A (0% ≤ substrate protein remaining % ≤80%)
6 | O=C1CCN(N2C(=O)c3ccc(CN4CCC(c5ncnc6sccc56)CC4)cc3C2=O)C(=O)N1 [GT-08106, 2-(2,4-dioxotetrahydropyrimidin-1(2H)-yl)-5-((4-(thieno[2,3-d]pyrimidin-4-yl)piperidin-1-yl)methyl)isoindoline-1,3-dione] | A (0% ≤ substrate protein remaining % ≤80%) | B (80%< substrate protein remaining % ≤100%) | B (80%< substrate protein remaining % ≤100%) | B (80%< substrate protein remaining % ≤100%) | A (0% ≤ substrate protein remaining % ≤80%) | B (80%< substrate protein remaining % ≤100%)
7 | O=C1CCN(N2C(=O)c3ccc(CN4CC=C(c5cccc(Cl)c5Cl)CC4)cc3C2=O)C(=O)N1 [GT-05249, 5-((4-(2,3-dichlorophenyl)-3,6-dihydropyridin-1(2H)-yl)methyl)-2-(2,4-dioxotetrahydropyrimidin-1(2H)-yl)isoindoline-1,3-dione] | A (0% ≤ substrate protein remaining % ≤80%) | B (80%< substrate protein remaining % ≤100%) | B (80%< substrate protein remaining % ≤100%) | B (80%< substrate protein remaining % ≤100%) | B (80%< substrate protein remaining % ≤100%) | A (0% ≤ substrate protein remaining % ≤80%)
8 | O=C1CCN(N2Cc3cc(CN4CCN(c5ncnc6sc7c(c56)CCC7)CC4)ccc3C2=O)C(=O)N1 [GT-08079, 1-(5-((4-(6,7-dihydro-5H-cyclopenta[4,5]thieno[2,3-d]pyrimidin-4-yl)piperazin-1-yl)methyl)-1-oxoisoindolin-2-yl)dihydropyrimidine-2,4(1H,3H)-dione] | A (0% ≤ substrate protein remaining % ≤80%) | B (80%< substrate protein remaining % ≤100%) | B (80%< substrate protein remaining % ≤100%) | A (0% ≤ substrate protein remaining % ≤80%) | A (0% ≤ substrate protein remaining % ≤80%) | B (80%< substrate protein remaining % ≤100%)
9 | O=C1CCN(N2Cc3cc(CN4CC(c5ccnc6cc(F)ccc56)C4)ccc3C2=O)C(=O)N1 [GT-07711, 1-(5-((3-(7-fluoroquinolin-4-yl)azetidin-1-yl)methyl)-1-oxoisoindolin-2-yl)dihydropyrimidine-2,4(1H,3H)-dione] | A (0% ≤ substrate protein remaining % ≤80%) | A (0% ≤ substrate protein remaining % ≤80%) | A (0% ≤ substrate protein remaining % ≤80%) | A (0% ≤ substrate protein remaining % ≤80%) | B (80%< substrate protein remaining % ≤100%) | A (0% ≤ substrate protein remaining % ≤80%)
10 | O=C1CCN(N2Cc3cc(CN4CCN(c5cnccn5)CC4)ccc3C2=O)C(=O)N1 [GT-07160, 1-(1-oxo-5-((4-(pyrazin-2-yl)piperazin-1-yl)methyl)isoindolin-2-yl)dihydropyrimidine-2,4(1H,3H)-dione] | A (0% ≤ substrate protein remaining % ≤80%) | B (80%< substrate protein remaining % ≤100%) | A (0% ≤ substrate protein remaining % ≤80%) | A (0% ≤ substrate protein remaining % ≤80%) | B (80%< substrate protein remaining % ≤100%) | B (80%< substrate protein remaining % ≤100%)
11 | O=C1CCN(N2Cc3cc(CN4CCC(c5ccccc5F)CC4)ccc3C2=O)C(=O)N1 [GT-06889, 1-(5-((4-(2-fluorophenyl)piperidin-1-yl)methyl)-1-oxoisoindolin-2-yl)dihydropyrimidine-2,4(1H,3H)-dione] | A (0% ≤ substrate protein remaining % ≤80%) | B (80%< substrate protein remaining % ≤100%) | A (0% ≤ substrate protein remaining % ≤80%) | B (80%< substrate protein remaining % ≤100%) | A (0% ≤ substrate protein remaining % ≤80%) | B (80%< substrate protein remaining % ≤100%)
